Experimental data published in patent US12428433B2, “Fluorine-containing heterocyclic derivatives with macrocyclic structure and use thereof” (ScinnoHub Pharmaceutical Co., Ltd, priority 2019, dated 2025).

Tested on: MDR1 (P-gp)
Test: Bidirectional permeability study on MDCK-MDR1 cell line
Type: in vitro ADME
Conditions: dog; for efflux ratio at 2 h, 1 μM: MDCK-MDR1, pH 7.4, read-out: Excretion ratio = Papp (B-A)/Papp (A-B); for Papp A→B at 2 h, 1 μM / Papp B→A at 2 h, 1 μM: pH 7.4, MDCK-MDR1, 1 μM
Method: MDCK-MDR1 cells were purchased from Netherlands Cancer Institute, and cells between 10 and 20 generations were used.
1) Before cell inoculation, 50 μL of cell medium was added into each well of an upper chamber of Transwell, and […] of cell medium was added into a lower culture plate. The culture plate was placed in an incubator at 37° C. under 5% CO2 for incubation for 1 hour, and then could be used for inoculating cells.
2) The MDCK-MDR1 cells were resuspended with the medium, so that a final concentration was 1.56×10^6 cells/mL. A cell suspension was added into an upper chamber of a 96-well Transwell culture plate according to 50 μL per well. The incubator was set at 37° C. under 5% CO2, and was ensured to have a relative humidity of 95% for culturing for 4 days to 8 days. The medium was replaced 48 hours after inoculation, the culturing lasted for 4 days to 8 days, and the medium was replaced every other day.
4) Calculation of resistance value: measured resistance value (ohms)×film area (cm^2)=TEER value (ohm cm^2), and if the TEER value was less than 42 ohms cm^2, the well could not be used for a penetration experiment.
1) The MDCK-MDR1 Transwell culture plate was taken from the incubator. The cell monolayer film was moistened and washed twice with a preheated HBSS (25 mM HEPES, pH 7.4) buffer, and incubated at 37° C. for 30 minutes.
2) A stock solution of the control compound and the test compound was diluted in DMSO to obtain a 200 μM solution, and then diluted with HBSS (10 mM HEPES, pH 7.4) to obtain a 1 μM working solution. A final concentration of DMSO in the incubation system was 0.5%.
3) A transfer rate of the compound from a top end to a base end was measured. 125 μL of working solution was added into the upper chamber (top end), then 50 μL of sample solution was immediately transferred from a lower chamber (base end) to a 96-well plate filled with 200 μL of acetonitrile containing an internal standard as a 0-minute administration sample (A-B) for detection, and 235 μL of HBSS (25 mM HEPES, pH 7.4) buffer was added into the lower chamber. The internal standard contained 100 nM alprazolam, 200 nM caffeine and 100 nM tolbutamide. The 50 μL of sample solution transferred above was vortexed at a speed of 1,000 rpm for 10 minutes.
4) A transfer rate of the compound from the base end to the top end was measured. 285 μL of working solution was added into the lower chamber (base end), then 50 μL of sample solution was immediately transferred from the upper chamber (top end) to a 96-well plate filled with 200 μL of acetonitrile containing an internal standard as a 0-minute administration sample (B-A) for detection, and 75 μL of HB SS (25 mM HEPES, pH 7.4) buffer was added into the upper chamber. The internal standard contained 100 nM alprazolam, 200 nM caffeine and 100 nM tolbutamide. The 50 μL of sample solution transferred above was vortexed at a speed of 1,000 rpm for 10 minutes. The experiment from the top end to the base end and the experiment from the base end to the top end should be carried out simultaneously.
5) After adding the buffers into the lower chamber and the upper chamber respectively, the MDCK-MDR1 Transwell culture plate was incubated at 37° C. for 2 hours.
6) After finishing incubating, 50 μL of sample solutions were respectively taken from an administration side (the upper chamber: Ap→Bl flux, the lower chamber: Bl→Ap) and a receiving side (the lower chamber: Ap→Bl flux, the upper chamber Bl→Ap) and added into new 96-well plates, and 4 times volume of […] containing the internal standard was added into the well plates. The internal standard substance contained 100 nM alprazolam, 200 nM caffeine and 100 nM tolbutamide. The solution was vortexed for 10 minutes, and then centrifuged at 3,220 g for 40 minutes. 100 μL of supernatant was sucked and mixed with equal volume of ultrapure water, and then subjected to LC-MS/MS analysis. […]

Row | efflux ratio at 2 h, 1 μM | Papp A→B at 2 h, 1 μM | Papp B→A at 2 h, 1 μM | SMILES
1 | 4.67 | 11.1 ×10⁻⁶ cm/s | 51.9 ×10⁻⁶ cm/s | C[C@H]1Nc2nc3c(cnn3cc2F)C(=O)N[C@H]2C[C@H](C2)Oc2ncc(F)cc21 [Example 3, (3^1S,3^3S,6^3E,6^4E,8R)-1^5,6^6-difluoro-8-methyl-2-oxo-4,7-diaza-6(3,5)-pyrazolo[1,5-a]pyrimidine-1(2,3)-pyridine-3(1,3)-cyclobutylcyclooctane-5-one]
2 | 19.4 | 3.31 ×10⁻⁶ cm/s | 64.4 ×10⁻⁶ cm/s | C[C@H]1Nc2ccn3ncc(c3n2)C(=O)N[C@H]2C[C@H](C2)Oc2ncc(F)cc21 [Positive control 2, reference compound]
